Results from PubChem BioAssay AID2060615 (Molecular Pharmacology Branch, DTP, NCI, 2025).

Test system: 496974-208-R-J2-PDC complex spheroids, growth % test/control
Assay: Anticancer human tumor 496974-208-R-J2-PDC patient-derived pancreatic carcinoma cell line growth inhibition [CLK]
Conditions: for IC50: curve of first compound; for viability, T/C: stronger effect = lower value; active = viability on the fitted dose curve at most 10% of control; inactive = the rest
Text: A high-throughput screen of multi-cell type tumor spheroids was designed to identify active combinations of […] and targeted small molecules. Complex spheroids include a stromal component modeled by human endothelial cells (HUVEC) and fibroblasts modeled by human mesenchymal stem cells (MSCs). The concentration ranges selected for each drug and investigational agent were based upon clinically achievable concentrations if the clinical Cmax of the agent was known.
Compounds. The drugs and investigational agents: cirtuvivint (SM08502; NSC835563), CC-671 (NSC850746), vemurafenib (NSC761431), tapotoclax (NSC804041), sotorasib (NSC818433), adagrasib (NSC831453), MRTX-1133 (NSC836407), BAY2416964 (NSC825713), copanlisib (NSC816437), inavolisib (NSC800729), abemaciclib (NSC768073), osimertinib (NSC779217), entinostat (NSC756642), eltanexor (KPT-8602, NSC794443), venetoclax (NSC766270), ceralasertib (NSC777638), bortezomib (NSC756655), olaparib (NSC753686), talazoparib (NSC767125), alisertib (NSC759677), peposertib (NSC802822), gemcitabine (NSC613327), 5-fluorouracil (NSC19893), SN-38 (NSC673596), oxaliplatin (NSC266046), paclitaxel (NSC125973), and doxorubicin (NSC123127), were obtained from the National Cancer Institute (NCI) Developmental Therapeutics Program Chemical Repository. The FDA-approved anticancer drug set is available from the Developmental Therapeutics Program at https://dtp.cancer.gov/organization/dscb/obtaining/available plates.htm. […] The stock solutions were prepared in dimethyl sulfoxide (DMSO, Sigma-Aldrich, St. Louis, MO, cat. D2650), except for the platinum complexes which were prepared in saline (Quality Biological, Gaithersburg, MD, cat. 114-055-101), at 800-fold the tested concentration and stored at -70 degrees C prior to their use. All drugs and investigational agents were tested over a range starting from a high concentration at or near the clinical Cmax and decreasing in half-log increments. If the clinical Cmax for an agent had not been determined, the highest concentration tested was 10 microM.
Cell Culture. All cells were maintained in an incubator at 37 degrees C and 5% CO2 with 95% humidity. The PDC lines were cultured according to standard operating procedures established by the NCI PDMR. Briefly, all PDCs were thawed and cultured in Matrigel-coated flasks prepared with a working solution of 1X Ham's F-12 nutrient mix, without supplementation (Invitrogen, Waltham, MA, cat. 11765054), 100 U/mL penicillin-streptomycin (Invitrogen, cat. 15140122), and 2.5% Matrigel (Corning Inc., Corning, NY, cat. 354248) for the first three passages. The 947758-054-R-J2-PDC line was cultured in 6B/Colon 1A media, which includes advanced DMEM/F-12 (Thermo Fisher Scientific, cat. 12634028), 10 mM HEPES (Thermo Fisher Scientific, cat. 15630080), 1X GlutaMAX supplement (Thermo Fisher Scientific, cat. 35050061), 0.1 mg/mL primocin (InvivoGen, cat. ant-pm-2), 10% defined fetal bovine serum, heat inactivated (HyClone Laboratories Inc., cat. SH30070.03HI), 1.25 mM N-Acetyl-L-cysteine (Sigma-Aldrich, cat. A9165), 10 mM nicotinamide (Sigma-Aldrich, cat. N0636), 1X B-27 supplement (Thermo Fisher Scientific, cat. 17504044), 1X N-2 supplement (Thermo Fisher Scientific, cat. 17502048), and 10 microM Y-27632 dihydrochloride (Tocris Bioscience, cat. 1254). The 876862-298-R-J1-PDC was cultured in 6E media, which includes all 6B/Colon 1A media components plus 50% L-WRN conditioned media (ATCC, cat. CRL-3276), 50 ng/mL recombinant human EGF recombinant protein (hEGF; Thermo Fisher Scientific, cat. PHG0311), 10 ng/mL recombinant human fibroblast growth factor 10 (hGFG-10; PeproTech, cat. 100-26), 1 ng/mL recombinant human fibroblast growth factor 2 (hFGF-2; PeproTech, cat. 100-18B), and 1 µM prostaglandin E2 (PGE2; Tocris, cat. 2296). The 227483-062-R1-J1-PDC line was cultured in Panc media, containing all 6E components except hFGF-2, with the addition of 500 nM SB-431542 (Selleckchem, cat. S1067) and 10 nM gastrin (Tocris, cat. 3006). […]

[1] = second compound 0.0316 µM, first compound 0.0316 µM
[2] = second compound 0.0316 µM, first compound 0.1 µM
[3] = second compound 0.0316 µM, first compound 0.316 µM
[4] = second compound 0.0316 µM, first compound 1 µM
[5] = second compound 0.1 µM, first compound 0.0316 µM
[6] = second compound 0.1 µM, first compound 0.1 µM
[7] = second compound 0.1 µM, first compound 0.316 µM
[8] = second compound 0.1 µM, first compound 1 µM
[9] = second compound 0.316 µM, first compound 0.0316 µM
[10] = second compound 0.316 µM, first compound 0.1 µM
[11] = second compound 0.316 µM, first compound 0.316 µM
[12] = second compound 0.316 µM, first compound 1 µM
[13] = second compound 1 µM, first compound 0.0316 µM
[14] = second compound 1 µM, first compound 0.1 µM
[15] = second compound 1 µM, first compound 0.316 µM
[16] = second compound 1 µM, first compound 1 µM
[17] = second compound 3.16 µM, first compound 0.0316 µM
[18] = second compound 3.16 µM, first compound 0.1 µM
[19] = second compound 3.16 µM, first compound 0.316 µM
[20] = second compound 3.16 µM, first compound 1 µM
[21] = second compound 10 µM, first compound 0.0316 µM
[22] = second compound 10 µM, first compound 0.1 µM
[23] = second compound 10 µM, first compound 0.316 µM
[24] = second compound 10 µM, first compound 1 µM
[25] = second compound 0.0316 µM, first compound 0.00316 µM
[26] = second compound 0.0316 µM, first compound 0.01 µM
[27] = second compound 0.1 µM, first compound 0.00316 µM
[28] = second compound 0.1 µM, first compound 0.01 µM
[29] = second compound 0.316 µM, first compound 0.00316 µM
[30] = second compound 0.316 µM, first compound 0.01 µM
[31] = second compound 1 µM, first compound 0.00316 µM
[32] = second compound 1 µM, first compound 0.01 µM
[33] = second compound 3.16 µM, first compound 0.00316 µM
[34] = second compound 3.16 µM, first compound 0.01 µM
[35] = second compound 10 µM, first compound 0.00316 µM
[36] = second compound 10 µM, first compound 0.01 µM
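Also: spheroids exposed to the drugs for 7 days before readout.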
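For viability, T/C in this document: 100% = DMSO vehicle control wells.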

CC(Nc1ccc2c(c1)OCCn1cc(N3C(=O)OCC3C(F)F)nc1-2)C(N)=O (stereo unspecified) + CN1CCN(c2cc(C(=O)Nc3cc4cc(-c5cnn(C)c5)ccc4cn3)ccn2)CC1
166 nM: IC50 (second compound 0.0316 µM)
< 31.6 nM: IC50 (second compound 0.316 µM) | IC50 (second compound 1 µM) | IC50 (second compound 3.16 µM) | IC50 (second compound 10 µM)
101 nM: IC50 (second compound 0.1 µM)
inactive: viability, T/C [1] 86.4% | viability, T/C [2] 60.1% | viability, T/C [3] 37.2% | viability, T/C [4] 22% | viability, T/C (second compound 0.0316 µM, first compound 3.16 µM) 13.6% | viability, T/C [5] 64% | viability, T/C [6] 51.2% | viability, T/C [7] 32.3% | viability, T/C [8] 20.9% | viability, T/C (second compound 0.1 µM, first compound 3.16 µM) 14.5%
active: viability, T/C (second compound 0.0316 µM, first compound 10 µM) 8.34% | viability, T/C (second compound 0.1 µM, first compound 10 µM) 8.7% | viability, T/C [9] 7.37% | viability, T/C [10] 5.41% | viability, T/C [11] 2.52% | viability, T/C [12] 2.18% | viability, T/C (second compound 0.316 µM, first compound 3.16 µM) 2.7% | viability, T/C (second compound 0.316 µM, first compound 10 µM) 2.59% | viability, T/C [13] 0.4% | viability, T/C [14] 0.53% | viability, T/C [15] 2.57% | viability, T/C [16] 0.36% | viability, T/C (second compound 1 µM, first compound 3.16 µM) 1.09% | viability, T/C (second compound 1 µM, first compound 10 µM) 1.26% | viability, T/C [17] 0.43% | viability, T/C [18] 0.34% | viability, T/C [19] 1.75% | viability, T/C [20] 0.38% | viability, T/C (second compound 3.16 µM, first compound 3.16 µM) 0.52% | viability, T/C (second compound 3.16 µM, first compound 10 µM) 0.5% | viability, T/C [21] 0.2% | viability, T/C [22] 0.58% | viability, T/C [23] 1.4% | viability, T/C [24] 0.27% | viability, T/C (second compound 10 µM, first compound 3.16 µM) 0.59% | viability, T/C (second compound 10 µM, first compound 10 µM) 0.57%

CCN1CCN(Cc2ccc(Nc3ncc(F)c(-c4cc(F)c5nc(C)n(C(C)C)c5c4)n3)nc2)CC1 + CN1CCN(c2cc(C(=O)Nc3cc4cc(-c5cnn(C)c5)ccc4cn3)ccn2)CC1
inactive: viability, T/C [25] 90.4% | viability, T/C [26] 87.9% | viability, T/C [1] 78.6% | viability, T/C [2] 81% | viability, T/C [3] 76.2% | viability, T/C [4] 87.7% | viability, T/C [27] 79.5% | viability, T/C [28] 73% | viability, T/C [5] 72.8% | viability, T/C [6] 72.9% | viability, T/C [7] 68.2% | viability, T/C [8] 70.6%
active: viability, T/C [29] 6.01% | viability, T/C [30] 10.2% | viability, T/C [9] 8.8% | viability, T/C [10] 11.3% | viability, T/C [11] 13.7% | viability, T/C [12] 9.83% | viability, T/C [31] 0.34% | viability, T/C [32] 0.41% | viability, T/C [13] 0.41% | viability, T/C [14] 0.39% | viability, T/C [15] 0.77% | viability, T/C [16] 2.79% | viability, T/C [33] 0.34% | viability, T/C [34] 1.89% | viability, T/C [17] 1.33% | viability, T/C [18] 0.51% | viability, T/C [19] 1.22% | viability, T/C [20] 4.6% | viability, T/C [35] 0.22% | viability, T/C [36] 0.34% | viability, T/C [21] 0.36% | viability, T/C [22] 0.29% | viability, T/C [23] 1.36% | viability, T/C [24] 2.46%
> 1000 nM: IC50 (second compound 0.0316 µM) | IC50 (second compound 0.1 µM)
< 3.16 nM: IC50 (second compound 0.316 µM) | IC50 (second compound 1 µM) | IC50 (second compound 3.16 µM) | IC50 (second compound 10 µM)

COc1c(OCCCN2CCOCC2)ccc2c3n(c(=NC(=O)c4cnc(N)nc4)nc12)CCN3 + CN1CCN(c2cc(C(=O)Nc3cc4cc(-c5cnn(C)c5)ccc4cn3)ccn2)CC1
inactive: viability, T/C [25] 84.8% | viability, T/C [26] 61.2% | viability, T/C [1] 33.2% | viability, T/C [2] 14.5% | viability, T/C [27] 65.5% | viability, T/C [28] 58.2% | viability, T/C [5] 27.1%
15.8 nM: IC50 (second compound 0.0316 µM)
13.3 nM: IC50 (second compound 0.1 µM)
active: viability, T/C [3] 7% | viability, T/C [4] 4.1% | viability, T/C [6] 11.5% | viability, T/C [7] 8.48% | viability, T/C [8] 3.16% | viability, T/C [29] 5.23% | viability, T/C [30] 3.99% | viability, T/C [9] 2.13% | viability, T/C [10] 1.22% | viability, T/C [11] 0.53% | viability, T/C [12] 0.56% | viability, T/C [31] 0.41% | viability, T/C [32] 0.62% | viability, T/C [13] 1.84% | viability, T/C [14] 0.29% | viability, T/C [15] 0.49% | viability, T/C [16] 1.95% | viability, T/C [33] 0.35% | viability, T/C [34] 1.42% | viability, T/C [17] 0.35% | viability, T/C [18] 0.45% | viability, T/C [19] 1.33% | viability, T/C [20] 0.46% | viability, T/C [35] 0.26% | viability, T/C [36] 0.83% | viability, T/C [21] 0.25% | viability, T/C [22] 0.19% | viability, T/C [23] 0.4% | viability, T/C [24] 1.34%
< 3.16 nM: IC50 (second compound 0.316 µM) | IC50 (second compound 1 µM) | IC50 (second compound 3.16 µM) | IC50 (second compound 10 µM)
